Laboratory results from US20100152215A1, “METHODS OF IDENTIFYING ACTIVATORS OF LYN KINASE” (MELIOR PHARMACEUTICALS I, INC., priority 2007, published 2010).

Legend:
Assay in all cases: kinase screen for inhibition or activation
Format in all cases: biochemical
[1] = target: KDR (FLK1, VEGFR2) (Homo sapiens, UniProt P35968); conditions: 10 μM
Description: (§1) A kinase screen was conducted in which Compound 102 (10 μM) was screened against 49 kinases for inhibition or activation. Any kinase that was activated or inhibited by at least 20% was considered to be a significant effect. Of the 49 kinases screened, Lyn kinase was activated by 51%. In a repeat experiment, Lyn kinase activity was increased by 57%.

[2] = target: CHK2 (Homo sapiens, UniProt O96017); conditions: 10 μM
Description: as §1

[3] = target: PKA (Homo sapiens, UniProt P17612); conditions: 10 μM
Description: as §1

[4] = tested on: p70S6K; conditions: 10 μM; inhibition
Description: as §1

[5] = target: cKit (Homo sapiens, UniProt P10721); conditions: 10 μM
Description: as §1

[6] = target: BTK (Homo sapiens, UniProt Q06187); conditions: 10 μM
Description: as §1

[7] = target: MSK1 (Homo sapiens, UniProt O75582); conditions: 10 μM
Description: as §1

[8] = target: CaMK4 (Homo sapiens, UniProt Q16566); conditions: 10 μM
Description: as §1

[9] = target: MAPK1 (Homo sapiens, UniProt P28482); conditions: 10 μM
Description: as §1

[10] = target: RSK1 (Homo sapiens, UniProt Q15418); conditions: 10 μM
Description: as §1

[11] = target: Lyn (Homo sapiens, UniProt P07948); conditions: 10 μM
Description: as §1

[12] = target: ROCK2 (Homo sapiens, UniProt O75116); conditions: 10 μM
Description: as §1

[13] = target: PDK1 (Homo sapiens, UniProt O15530); conditions: 10 μM
Description: as §1

[14] = target: PAK2 (Homo sapiens, UniProt Q13177); conditions: 10 μM
Description: as §1

[15] = target: PKD2 (Homo sapiens, UniProt Q9BZL6); conditions: 10 μM
Description: as §1

[16] = tested on: MAPK3 (p38); conditions: 10 μM
Description: as §1

[17] = target: Fyn (Homo sapiens, UniProt P06241); conditions: 10 μM
Description: as §1

[18] = target: JNK2 (Homo sapiens, UniProt P45984); conditions: 10 μM
Description: as §1

[19] = target: SGK1 (Homo sapiens, UniProt O00141); conditions: 10 μM
Description: as §1

[20] = target: CHK1 (Homo sapiens, UniProt O14757); conditions: 10 μM
Description: as §1

[21] = target: GSK3b (Homo sapiens, UniProt P49841); conditions: 10 μM
Description: as §1

[22] = target: cRAF (Homo sapiens, UniProt P04049); conditions: 10 μM
Description: as §1

[23] = target: Lck (Homo sapiens, UniProt P06239); conditions: 10 μM
Description: as §1

[24] = target: AurA (Homo sapiens, UniProt O14965); conditions: 10 μM
Description: as §1

[25] = target: IKKb (Homo sapiens, UniProt O14920); conditions: 10 μM
Description: as §1

[26] = target: CaMK2a (Homo sapiens, UniProt Q9UQM7); conditions: 10 μM
Description: as §1

[27] = target: Syc (Homo sapiens, UniProt P43405); conditions: 10 μM
Description: as §1

[28] = target: Akt2 (Homo sapiens, UniProt P31751); conditions: 10 μM
Description: as §1

[29] = target: IGF1R (Homo sapiens, UniProt P08069)
Description: as §1

Chain of Lyn (P07948 whole entry): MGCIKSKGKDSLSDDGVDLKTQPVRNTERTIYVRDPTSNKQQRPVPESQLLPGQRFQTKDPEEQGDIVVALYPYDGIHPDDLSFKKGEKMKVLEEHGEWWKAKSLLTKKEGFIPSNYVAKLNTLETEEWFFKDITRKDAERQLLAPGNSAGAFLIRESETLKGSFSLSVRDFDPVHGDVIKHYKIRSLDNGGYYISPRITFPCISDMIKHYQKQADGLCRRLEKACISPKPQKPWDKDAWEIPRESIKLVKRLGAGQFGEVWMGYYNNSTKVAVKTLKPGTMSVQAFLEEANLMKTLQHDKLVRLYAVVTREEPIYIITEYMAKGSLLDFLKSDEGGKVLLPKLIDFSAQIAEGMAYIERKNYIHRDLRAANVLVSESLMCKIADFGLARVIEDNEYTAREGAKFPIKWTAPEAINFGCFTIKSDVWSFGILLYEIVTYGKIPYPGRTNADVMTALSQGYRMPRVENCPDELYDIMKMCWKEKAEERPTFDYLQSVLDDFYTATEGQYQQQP
Chain of IGF1R (P08069 31-1367, species assumed): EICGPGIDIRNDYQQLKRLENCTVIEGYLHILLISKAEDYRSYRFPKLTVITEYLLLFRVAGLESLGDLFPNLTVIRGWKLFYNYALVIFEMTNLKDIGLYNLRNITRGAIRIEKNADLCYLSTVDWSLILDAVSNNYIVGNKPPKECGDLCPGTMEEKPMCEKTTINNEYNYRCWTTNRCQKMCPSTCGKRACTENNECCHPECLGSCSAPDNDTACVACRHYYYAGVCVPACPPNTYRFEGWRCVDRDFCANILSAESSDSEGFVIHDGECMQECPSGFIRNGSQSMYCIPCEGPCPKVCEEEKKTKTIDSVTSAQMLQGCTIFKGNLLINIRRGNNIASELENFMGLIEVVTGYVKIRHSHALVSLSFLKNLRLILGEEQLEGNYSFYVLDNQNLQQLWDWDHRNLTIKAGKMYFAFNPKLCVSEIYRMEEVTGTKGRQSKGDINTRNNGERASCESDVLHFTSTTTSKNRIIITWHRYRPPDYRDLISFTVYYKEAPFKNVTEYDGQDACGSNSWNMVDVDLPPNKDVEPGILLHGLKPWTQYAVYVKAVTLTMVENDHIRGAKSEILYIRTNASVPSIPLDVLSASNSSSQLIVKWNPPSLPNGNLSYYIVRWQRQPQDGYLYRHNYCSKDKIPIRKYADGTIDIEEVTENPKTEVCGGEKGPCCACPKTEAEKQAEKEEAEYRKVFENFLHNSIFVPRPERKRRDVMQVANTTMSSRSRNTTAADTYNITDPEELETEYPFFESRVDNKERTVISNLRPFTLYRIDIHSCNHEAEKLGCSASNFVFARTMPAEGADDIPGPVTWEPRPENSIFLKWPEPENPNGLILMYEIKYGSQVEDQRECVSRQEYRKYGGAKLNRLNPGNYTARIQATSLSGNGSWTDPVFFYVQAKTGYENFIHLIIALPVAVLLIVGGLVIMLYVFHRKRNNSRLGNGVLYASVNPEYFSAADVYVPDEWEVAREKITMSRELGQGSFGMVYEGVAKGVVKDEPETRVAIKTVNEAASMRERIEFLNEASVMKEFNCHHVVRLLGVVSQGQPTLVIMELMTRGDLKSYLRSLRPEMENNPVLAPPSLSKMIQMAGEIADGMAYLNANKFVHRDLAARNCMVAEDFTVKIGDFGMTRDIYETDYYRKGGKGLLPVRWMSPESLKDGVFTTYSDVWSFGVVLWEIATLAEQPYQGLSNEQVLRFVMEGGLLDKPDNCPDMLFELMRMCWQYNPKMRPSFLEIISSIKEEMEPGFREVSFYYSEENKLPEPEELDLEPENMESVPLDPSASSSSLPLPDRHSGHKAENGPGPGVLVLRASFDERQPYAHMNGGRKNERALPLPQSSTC
Chain of AurA (O14965 whole entry, species assumed): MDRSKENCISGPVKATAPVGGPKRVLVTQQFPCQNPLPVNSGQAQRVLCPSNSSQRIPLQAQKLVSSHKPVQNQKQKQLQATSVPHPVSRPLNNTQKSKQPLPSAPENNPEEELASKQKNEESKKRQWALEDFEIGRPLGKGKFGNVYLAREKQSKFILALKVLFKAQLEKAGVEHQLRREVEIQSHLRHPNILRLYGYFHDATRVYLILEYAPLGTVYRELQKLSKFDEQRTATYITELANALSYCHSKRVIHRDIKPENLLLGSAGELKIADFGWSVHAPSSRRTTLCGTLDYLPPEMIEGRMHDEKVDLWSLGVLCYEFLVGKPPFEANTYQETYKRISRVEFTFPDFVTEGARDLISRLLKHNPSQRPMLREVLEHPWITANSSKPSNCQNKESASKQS
Chain of MSK1 (O75582 whole entry, species assumed): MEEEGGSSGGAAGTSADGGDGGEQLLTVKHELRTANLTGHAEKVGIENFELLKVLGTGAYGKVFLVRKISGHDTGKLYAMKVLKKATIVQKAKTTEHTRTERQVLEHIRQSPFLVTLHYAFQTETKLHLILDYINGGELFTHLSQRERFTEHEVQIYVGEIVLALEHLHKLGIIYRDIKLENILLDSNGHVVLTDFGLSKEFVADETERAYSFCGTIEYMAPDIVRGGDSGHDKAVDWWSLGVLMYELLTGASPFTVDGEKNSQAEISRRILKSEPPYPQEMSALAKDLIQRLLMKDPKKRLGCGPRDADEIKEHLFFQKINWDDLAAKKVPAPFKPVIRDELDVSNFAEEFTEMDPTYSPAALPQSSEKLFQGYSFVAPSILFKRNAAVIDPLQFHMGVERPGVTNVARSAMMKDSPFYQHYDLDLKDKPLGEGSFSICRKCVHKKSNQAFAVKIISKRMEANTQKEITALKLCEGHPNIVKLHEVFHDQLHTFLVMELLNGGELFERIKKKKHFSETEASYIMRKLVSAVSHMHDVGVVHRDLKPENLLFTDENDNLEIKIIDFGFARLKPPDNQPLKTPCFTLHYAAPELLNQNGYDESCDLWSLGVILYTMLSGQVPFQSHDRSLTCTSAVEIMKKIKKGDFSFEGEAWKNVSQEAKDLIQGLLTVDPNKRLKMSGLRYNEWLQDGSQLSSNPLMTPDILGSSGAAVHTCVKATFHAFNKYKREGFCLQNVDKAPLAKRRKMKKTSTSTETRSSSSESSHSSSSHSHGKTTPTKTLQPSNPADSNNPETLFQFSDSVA
Chain of CHK1 (O14757 whole entry, species assumed): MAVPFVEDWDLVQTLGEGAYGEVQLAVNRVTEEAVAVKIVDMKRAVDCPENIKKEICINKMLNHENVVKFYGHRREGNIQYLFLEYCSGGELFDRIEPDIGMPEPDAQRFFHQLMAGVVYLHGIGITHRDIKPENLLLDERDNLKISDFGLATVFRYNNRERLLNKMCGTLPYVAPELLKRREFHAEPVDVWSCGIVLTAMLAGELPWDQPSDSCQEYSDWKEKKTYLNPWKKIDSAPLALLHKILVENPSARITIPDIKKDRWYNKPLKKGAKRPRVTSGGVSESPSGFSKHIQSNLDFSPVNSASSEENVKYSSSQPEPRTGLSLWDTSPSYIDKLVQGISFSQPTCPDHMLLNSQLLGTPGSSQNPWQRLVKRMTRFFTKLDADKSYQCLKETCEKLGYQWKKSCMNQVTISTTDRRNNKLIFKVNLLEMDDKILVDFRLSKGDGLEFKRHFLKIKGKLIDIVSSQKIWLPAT
Chain of CaMK2a (Q9UQM7 whole entry, species assumed): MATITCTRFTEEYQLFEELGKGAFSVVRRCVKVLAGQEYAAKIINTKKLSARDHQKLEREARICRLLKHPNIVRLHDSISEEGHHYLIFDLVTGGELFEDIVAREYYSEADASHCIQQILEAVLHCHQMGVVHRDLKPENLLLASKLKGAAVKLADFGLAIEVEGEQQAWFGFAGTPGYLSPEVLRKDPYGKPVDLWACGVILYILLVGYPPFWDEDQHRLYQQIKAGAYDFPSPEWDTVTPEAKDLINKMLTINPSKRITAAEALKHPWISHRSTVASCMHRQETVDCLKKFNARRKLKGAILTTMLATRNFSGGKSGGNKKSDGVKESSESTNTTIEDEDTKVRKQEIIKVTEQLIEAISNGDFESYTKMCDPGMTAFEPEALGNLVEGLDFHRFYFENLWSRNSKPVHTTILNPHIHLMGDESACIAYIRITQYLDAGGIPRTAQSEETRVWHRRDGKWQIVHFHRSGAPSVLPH
Chain of PDK1 (O15530 whole entry): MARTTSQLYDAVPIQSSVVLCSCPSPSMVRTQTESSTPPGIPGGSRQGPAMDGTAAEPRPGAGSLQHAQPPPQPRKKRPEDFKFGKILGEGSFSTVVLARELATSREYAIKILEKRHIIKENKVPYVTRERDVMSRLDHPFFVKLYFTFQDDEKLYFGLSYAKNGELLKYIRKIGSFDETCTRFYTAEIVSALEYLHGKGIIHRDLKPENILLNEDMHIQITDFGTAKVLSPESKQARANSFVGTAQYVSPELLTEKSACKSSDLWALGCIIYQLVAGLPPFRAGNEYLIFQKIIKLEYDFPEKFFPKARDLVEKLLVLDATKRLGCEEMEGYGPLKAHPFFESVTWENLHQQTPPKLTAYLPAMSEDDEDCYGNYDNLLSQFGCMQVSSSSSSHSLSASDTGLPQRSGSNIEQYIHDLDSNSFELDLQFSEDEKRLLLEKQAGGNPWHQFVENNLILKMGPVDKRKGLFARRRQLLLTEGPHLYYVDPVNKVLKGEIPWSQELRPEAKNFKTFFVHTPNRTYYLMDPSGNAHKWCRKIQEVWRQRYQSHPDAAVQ
Chain of SGK1 (O00141 whole entry, species assumed): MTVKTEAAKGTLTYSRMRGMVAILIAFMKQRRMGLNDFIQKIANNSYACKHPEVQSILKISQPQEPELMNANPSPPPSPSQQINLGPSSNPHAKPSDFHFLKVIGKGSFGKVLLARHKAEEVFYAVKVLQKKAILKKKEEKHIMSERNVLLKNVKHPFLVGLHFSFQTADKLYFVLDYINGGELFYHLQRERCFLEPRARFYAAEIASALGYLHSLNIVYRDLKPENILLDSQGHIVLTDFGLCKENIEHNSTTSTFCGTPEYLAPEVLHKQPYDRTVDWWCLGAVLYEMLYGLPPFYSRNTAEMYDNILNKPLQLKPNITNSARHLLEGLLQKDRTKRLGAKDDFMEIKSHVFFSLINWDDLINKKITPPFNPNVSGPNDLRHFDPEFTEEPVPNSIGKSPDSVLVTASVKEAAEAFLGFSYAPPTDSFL

COMPOUND 102 ACTIVITY (% KINASE ACTIVITY) [1]: 0%
COMPOUND 102 ACTIVITY (% KINASE ACTIVITY) [2]: −6.17%
COMPOUND 102 ACTIVITY (% KINASE ACTIVITY) [3]: −0.3%
p70S6K inhibited by [4]: 24.3%
COMPOUND 102 ACTIVITY (% KINASE ACTIVITY) [5]: 18.79%
COMPOUND 102 ACTIVITY (% KINASE ACTIVITY) [6]: 10%
COMPOUND 102 ACTIVITY (% KINASE ACTIVITY) [7]: 1.55%
COMPOUND 102 ACTIVITY (% KINASE ACTIVITY) [8]: 17.35%
COMPOUND 102 ACTIVITY (% KINASE ACTIVITY) [9]: 0.6%
COMPOUND 102 ACTIVITY (% KINASE ACTIVITY) [10]: 1.72%
COMPOUND 102 ACTIVITY (% KINASE ACTIVITY) ([11]; Lyn (repeat), repeat experiment, activation): 57%
COMPOUND 102 ACTIVITY (% KINASE ACTIVITY) ([11]; Lyn (repeat), repeat experiment, activation, listed as COMPOUND 102, 10 µM): 57.11%
COMPOUND 102 ACTIVITY (% KINASE ACTIVITY) ([11]; Lyn, first screen, activation): 51%
COMPOUND 102 ACTIVITY (% KINASE ACTIVITY) ([11]; Lyn, first screen, activation, listed as COMPOUND 102, 10 µM): 51.05%
COMPOUND 102 ACTIVITY (% KINASE ACTIVITY) ([11]; Lyn, third Lyn line of the table): 57%
COMPOUND 102 ACTIVITY (% KINASE ACTIVITY) [12]: −3.05%
COMPOUND 102 ACTIVITY (% KINASE ACTIVITY) [13]: −2.63%
COMPOUND 102 ACTIVITY (% KINASE ACTIVITY) [14]: 1.55%
COMPOUND 102 ACTIVITY (% KINASE ACTIVITY) [15]: −10.34%
COMPOUND 102 ACTIVITY (% KINASE ACTIVITY) [16]: −6.05%
COMPOUND 102 ACTIVITY (% KINASE ACTIVITY) [17]: −4.64%
COMPOUND 102 ACTIVITY (% KINASE ACTIVITY) [18]: −4.8%
COMPOUND 102 ACTIVITY (% KINASE ACTIVITY) [19]: −19.24%
COMPOUND 102 ACTIVITY (% KINASE ACTIVITY) [20]: 0.87%
COMPOUND 102 ACTIVITY (% KINASE ACTIVITY) [21]: 2.47%
COMPOUND 102 ACTIVITY (% KINASE ACTIVITY) [22]: 5.08%
COMPOUND 102 ACTIVITY (% KINASE ACTIVITY) [23]: 6.28%
COMPOUND 102 ACTIVITY (% KINASE ACTIVITY) [24]: −12.21%
COMPOUND 102 ACTIVITY (% KINASE ACTIVITY) [25]: −6.26%
COMPOUND 102 ACTIVITY (% KINASE ACTIVITY) [26]: 0.08%
COMPOUND 102 ACTIVITY (% KINASE ACTIVITY) [27]: 11.12%
COMPOUND 102 ACTIVITY (% KINASE ACTIVITY) [28]: −6.83%
COMPOUND 102 ACTIVITY (% KINASE ACTIVITY) ([29]; IGF1R, 10 μM): −20.18%
inhibition at 10 µM ([29]; inhibition, read-out: insulin-like growth factor receptor activity inhibited by): 20.1%
SMILES: Cc1cccc(Oc2cnc(=O)[nH]c2)c1 [Compound 102]
